Some results are limits rather than exact numbers.

In patent US10322995B2, “Substituted cyano cycloalkyl penta-2,4-dienes, cyano cycloalkyl pent-2-en-4-ynes, cyano heterocyclyl penta-2,4-dienes and cyano heterocyclyl pent-2-en-4-ynes as active substances against abiotic plant stress” (BAYER CROPSCIENCE AKTIENGESELLSCHAFT, priority 2014, dated 2019) one finds inhibition and ABI1 inhibition data, which are given here for nine compounds.

The first assay has as its target T1, phosphatase ABI1 via the co-regulator RCAR11/PYR1 (Arabidopsis thaliana, UniProt O49686+P49597).
T1 sequence (O49686 1-191): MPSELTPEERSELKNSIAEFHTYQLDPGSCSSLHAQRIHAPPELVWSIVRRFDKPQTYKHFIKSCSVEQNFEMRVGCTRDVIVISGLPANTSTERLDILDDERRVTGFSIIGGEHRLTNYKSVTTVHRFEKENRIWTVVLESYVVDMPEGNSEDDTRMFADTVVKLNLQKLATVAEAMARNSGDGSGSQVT
T1 sequence (P49597 1-434): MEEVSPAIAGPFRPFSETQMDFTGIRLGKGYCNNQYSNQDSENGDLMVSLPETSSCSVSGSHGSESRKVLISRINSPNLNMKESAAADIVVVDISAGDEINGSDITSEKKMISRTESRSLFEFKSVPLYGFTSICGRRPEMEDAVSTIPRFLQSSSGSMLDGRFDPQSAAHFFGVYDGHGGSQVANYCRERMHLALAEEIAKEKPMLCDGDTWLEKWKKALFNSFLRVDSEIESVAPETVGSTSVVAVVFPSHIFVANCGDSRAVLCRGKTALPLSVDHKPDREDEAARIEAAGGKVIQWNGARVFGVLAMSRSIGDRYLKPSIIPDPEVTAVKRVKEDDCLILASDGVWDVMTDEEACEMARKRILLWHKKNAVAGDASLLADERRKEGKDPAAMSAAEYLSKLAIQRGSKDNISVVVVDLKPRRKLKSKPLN
In words: In vitro assay: inhibition of the phosphatase ABI1 via the co-regulator RCAR11/PYR1, MUP dephosphorylation, fluorescence. The format is biochemical. Further details: inhibition: dose or concentration left out as unconfirmed. Conditions: MUP dephosphorylation, fluorescence 460 nm; read-out: ABI1 inhibition. The method, boiled down: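 ABI1 (0.15 μg/well) with RCAR11 (0.30 μg/well) in Tris-HCl pH 8, NaCl, MnCl2, DTT and Tween20, with MUP as substrate; 20 min at 35 °C, fluorescence at ex 340/em 460 nm. Compounds were in DMSO/water, esterase-pretreated if needed, with DMSO 0.5% and ABA 5 μM as controls. Inhibition was binned into ≥90, 70–90, 50–70 and 30–50% classes.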
Regarding `CCOC(=O)/C=C(\C#CC(O)(C(C)C)C1(C#N)CC1)C1CC1` (stereo not drawn) [I.1-124, Ethyl (2Z)-6-(1-cyanocyclopropyl)-3-cyclopropyl-6-hydroxy-7-methyloct-2-en-4-ynoate], the inhibition is above 90%.

Staying with this assay, now noted: concentration of 5 mM of the substance in a solution of DMSO and water; MUP dephosphorylation, fluorescence 460 nm.
In the case of `CCC(C=CC(O)(c1ccccc1)C1(C#N)CC1)=CC(=O)O` (racemic) [I.2-201], the ABI1 inhibition result is recorded as “++++ (inhibition≥90%)”.

Turning to `CCOC(=O)/C=C(\C#CC(O)(C(C)C)C1(C#N)CC1)CC` (stereo not drawn) [I.1-103], the ABI1 inhibition result is recorded as “++++ (inhibition≥90%)”.

Turning to `COC(=O)/C=C(/C)C#CC(O)(C(C)C)C1(C#N)CC1` (stereo not drawn) [I.1-135], the ABI1 inhibition entry is reported as “++++ (inhibition≥90%)”.

In the case of `CCOC(=O)/C=C(/C)C#CC(O)(C(C)C)C1(C#N)CC1` (stereo not drawn) [I.1-136], the ABI1 inhibition result is recorded as “+++ (90%>inhibition≥70%)”.

Regarding `CC/C(C#CC(O)(c1ccccc1)C1(C#N)CC1)=C/C(=O)OC` (stereo not drawn) [I.1-202], the ABI1 inhibition entry is listed as “++++ (inhibition≥90%)”.

As for `CCCOC(=O)/C=C(\C#CC(O)(C(C)C)C1(C#N)CC1)CC` (stereo not drawn) [I.1-605], the ABI1 inhibition entry is on record as “++++ (inhibition≥90%)”.

In the case of `CCCOC(=O)/C=C(\C#CC(O)(c1ccccc1)C1(C#N)CC1)CC` (stereo not drawn) [I.1-609], the ABI1 inhibition entry is reported as “++++ (inhibition≥90%)”.

On to `CC/C(C#CC(O)(C1CCC1)C1(C#N)CC1)=C/C(=O)OC` (stereo not drawn) [I.1-648], for which the ABI1 inhibition result is listed as “++++ (inhibition≥90%)”.
